# Laboratory results: ChEMBL document CHEMBL2440080, “Synthesis and biological evaluation of novel acylhydrazone derivatives as potential antitumor agents” (Bioorg Med Chem, 2013)
# Tested on: CAKI-1
# Experiment: Cytotoxicity against human CAKI-1 cells after 48 hrs by sulforhodamine B assay
# Assay type: functional
# Conditions: CAKI-1, 48 h
row,SMILES,GI50
1,O=C(N/N=C/c1ccccc1O)c1ccccc1Nc1ccnc(C(F)(F)F)c1,316 nM
2,CCOc1cccc(/C=N/NC(=O)Cc2ccc(Nc3ccnc(C(F)(F)F)c3)cc2)c1O,2510 nM

# Tested on: Mus musculus
# Experiment: Toxicity in athymic nude mouse assessed as survival at 400 mg/kg, ip measured after 2 weeks
# Assay type: organism-based
# Parameters: dose 400 mg/kg, route intraperitoneal
# Conditions: in vivo, 336 h
row,SMILES,Activity
1,O=C(N/N=C/c1ccccc1O)c1ccccc1Nc1ccnc(C(F)(F)F)c1,Non-toxic

# Tested on: T47D
# Experiment: Cytotoxicity against human T47D cells after 48 hrs by sulforhodamine B assay
# Assay type: functional
# Conditions: not given
row,SMILES,GI50
1,O=C(N/N=C/c1ccccc1O)c1ccccc1Nc1ccnc(C(F)(F)F)c1,1260 nM
2,CCOc1cccc(/C=N/NC(=O)Cc2ccc(Nc3ccnc(C(F)(F)F)c3)cc2)c1O,2510 nM

# Tested on: BT-549
# Experiment: Cytotoxicity against human BT549 cells after 48 hrs by sulforhodamine B assay
# Assay type: functional
# Conditions: BT-549, 48 h
row,SMILES,GI50
1,O=C(N/N=C/c1ccccc1O)c1ccccc1Nc1ccnc(C(F)(F)F)c1,631 nM
2,CCOc1cccc(/C=N/NC(=O)Cc2ccc(Nc3ccnc(C(F)(F)F)c3)cc2)c1O,2510 nM

# Tested on: NCI/ADR-RES
# Experiment: Cytotoxicity against human NCI/ADR-RES cells after 48 hrs by sulforhodamine B assay
# Assay type: functional
# Conditions: not given
row,SMILES,GI50
1,O=C(N/N=C/c1ccccc1O)c1ccccc1Nc1ccnc(C(F)(F)F)c1,398 nM
2,CCOc1cccc(/C=N/NC(=O)Cc2ccc(Nc3ccnc(C(F)(F)F)c3)cc2)c1O,3980 nM

# Tested on: DU-145
# Experiment: Cytotoxicity against human DU145 cells after 48 hrs by sulforhodamine B assay
# Assay type: functional
# Conditions: DU-145, 48 h
row,SMILES,GI50
1,O=C(N/N=C/c1ccccc1O)c1ccccc1Nc1ccnc(C(F)(F)F)c1,631 nM
2,CCOc1cccc(/C=N/NC(=O)Cc2ccc(Nc3ccnc(C(F)(F)F)c3)cc2)c1O,2000 nM

# Tested on: PC-3
# Experiment: Cytotoxicity against human PC3 cells after 48 hrs by sulforhodamine B assay
# Assay type: functional
# Conditions: PC-3, 48 h
row,SMILES,GI50
1,O=C(N/N=C/c1ccccc1O)c1ccccc1Nc1ccnc(C(F)(F)F)c1,126 nM
2,CCOc1cccc(/C=N/NC(=O)Cc2ccc(Nc3ccnc(C(F)(F)F)c3)cc2)c1O,2000 nM

# Tested on: TK-10
# Experiment: Cytotoxicity against human TK10 cells after 48 hrs by sulforhodamine B assay
# Assay type: functional
# Conditions: TK-10, 48 h
row,SMILES,GI50
1,O=C(N/N=C/c1ccccc1O)c1ccccc1Nc1ccnc(C(F)(F)F)c1,501 nM
2,CCOc1cccc(/C=N/NC(=O)Cc2ccc(Nc3ccnc(C(F)(F)F)c3)cc2)c1O,3980 nM

# Tested on: ACHN
# Experiment: Cytotoxicity against human ACHN cells after 48 hrs by sulforhodamine B assay
# Assay type: functional
# Conditions: not given
row,SMILES,GI50
1,O=C(N/N=C/c1ccccc1O)c1ccccc1Nc1ccnc(C(F)(F)F)c1,398 nM
2,CCOc1cccc(/C=N/NC(=O)Cc2ccc(Nc3ccnc(C(F)(F)F)c3)cc2)c1O,1580 nM

# Tested on: RXF 393
# Experiment: Cytotoxicity against human RXF393 cells after 48 hrs by sulforhodamine B assay
# Assay type: functional
# Conditions: RXF 393, 48 h
row,SMILES,GI50
1,O=C(N/N=C/c1ccccc1O)c1ccccc1Nc1ccnc(C(F)(F)F)c1,63.1 nM
2,CCOc1cccc(/C=N/NC(=O)Cc2ccc(Nc3ccnc(C(F)(F)F)c3)cc2)c1O,3160 nM

# Tested on: OVCAR-8
# Experiment: Cytotoxicity against human OVCAR8 cells after 48 hrs by sulforhodamine B assay
# Assay type: functional
# Conditions: OVCAR-8, 48 h
row,SMILES,GI50
1,O=C(N/N=C/c1ccccc1O)c1ccccc1Nc1ccnc(C(F)(F)F)c1,501 nM
2,CCOc1cccc(/C=N/NC(=O)Cc2ccc(Nc3ccnc(C(F)(F)F)c3)cc2)c1O,3160 nM

# Tested on: OVCAR-4
# Experiment: Cytotoxicity against human OVCAR4 cells after 48 hrs by sulforhodamine B assay
# Assay type: functional
# Conditions: OVCAR-4, 48 h
row,SMILES,GI50
1,O=C(N/N=C/c1ccccc1O)c1ccccc1Nc1ccnc(C(F)(F)F)c1,251 nM
2,CCOc1cccc(/C=N/NC(=O)Cc2ccc(Nc3ccnc(C(F)(F)F)c3)cc2)c1O,794 nM

# Tested on: IGROV-1
# Experiment: Cytotoxicity against human IGROV1 cells after 48 hrs by sulforhodamine B assay
# Assay type: functional
# Conditions: IGROV-1, 48 h
row,SMILES,GI50
1,O=C(N/N=C/c1ccccc1O)c1ccccc1Nc1ccnc(C(F)(F)F)c1,15.8 nM
2,CCOc1cccc(/C=N/NC(=O)Cc2ccc(Nc3ccnc(C(F)(F)F)c3)cc2)c1O,2510 nM

# Tested on: OVCAR-3
# Experiment: Cytotoxicity against human OVCAR3 cells after 48 hrs by sulforhodamine B assay
# Assay type: functional
# Conditions: OVCAR-3, 48 h
row,SMILES,GI50
1,O=C(N/N=C/c1ccccc1O)c1ccccc1Nc1ccnc(C(F)(F)F)c1,316 nM
2,CCOc1cccc(/C=N/NC(=O)Cc2ccc(Nc3ccnc(C(F)(F)F)c3)cc2)c1O,398 nM

# Tested on: UACC-62
# Experiment: Cytotoxicity against human UACC62 cells after 48 hrs by sulforhodamine B assay
# Assay type: functional
# Conditions: UACC-62, 48 h
row,SMILES,GI50
1,O=C(N/N=C/c1ccccc1O)c1ccccc1Nc1ccnc(C(F)(F)F)c1,398 nM
2,CCOc1cccc(/C=N/NC(=O)Cc2ccc(Nc3ccnc(C(F)(F)F)c3)cc2)c1O,1580 nM

# Tested on: M14
# Experiment: Cytotoxicity against human M14 cells after 48 hrs by sulforhodamine B assay
# Assay type: functional
# Conditions: M14, 48 h
row,SMILES,GI50
1,O=C(N/N=C/c1ccccc1O)c1ccccc1Nc1ccnc(C(F)(F)F)c1,501 nM
2,CCOc1cccc(/C=N/NC(=O)Cc2ccc(Nc3ccnc(C(F)(F)F)c3)cc2)c1O,2000 nM

# Tested on: LOX IMVI
# Experiment: Cytotoxicity against human LOXIMVI cells after 48 hrs by sulforhodamine B assay
# Assay type: functional
# Conditions: not given
row,SMILES,GI50
1,O=C(N/N=C/c1ccccc1O)c1ccccc1Nc1ccnc(C(F)(F)F)c1,316 nM
2,CCOc1cccc(/C=N/NC(=O)Cc2ccc(Nc3ccnc(C(F)(F)F)c3)cc2)c1O,1580 nM

# Tested on: SNB-75
# Experiment: Cytotoxicity against human SNB75 cells after 48 hrs by sulforhodamine B assay
# Assay type: functional
# Conditions: SNB-75, 48 h
row,SMILES,GI50
1,O=C(N/N=C/c1ccccc1O)c1ccccc1Nc1ccnc(C(F)(F)F)c1,316 nM
2,CCOc1cccc(/C=N/NC(=O)Cc2ccc(Nc3ccnc(C(F)(F)F)c3)cc2)c1O,12600 nM

# Tested on: U-251
# Experiment: Cytotoxicity against human U251 cells after 48 hrs by sulforhodamine B assay
# Assay type: functional
# Conditions: U-251, 48 h
row,SMILES,GI50
1,O=C(N/N=C/c1ccccc1O)c1ccccc1Nc1ccnc(C(F)(F)F)c1,501 nM
2,CCOc1cccc(/C=N/NC(=O)Cc2ccc(Nc3ccnc(C(F)(F)F)c3)cc2)c1O,1580 nM

# Tested on: SF-295
# Experiment: Cytotoxicity against human SF295 cells after 48 hrs by sulforhodamine B assay
# Assay type: functional
# Conditions: SF-295, 48 h
row,SMILES,GI50
1,O=C(N/N=C/c1ccccc1O)c1ccccc1Nc1ccnc(C(F)(F)F)c1,501 nM
2,CCOc1cccc(/C=N/NC(=O)Cc2ccc(Nc3ccnc(C(F)(F)F)c3)cc2)c1O,3980 nM

# Tested on: SF-268
# Experiment: Cytotoxicity against human SF268 cells after 48 hrs by sulforhodamine B assay
# Assay type: functional
# Conditions: SF-268, 48 h
row,SMILES,GI50
1,O=C(N/N=C/c1ccccc1O)c1ccccc1Nc1ccnc(C(F)(F)F)c1,631 nM
2,CCOc1cccc(/C=N/NC(=O)Cc2ccc(Nc3ccnc(C(F)(F)F)c3)cc2)c1O,1260 nM

# Tested on: KM12
# Experiment: Cytotoxicity against human KM12 cells after 48 hrs by sulforhodamine B assay
# Assay type: functional
# Conditions: KM12, 48 h
row,SMILES,GI50
1,O=C(N/N=C/c1ccccc1O)c1ccccc1Nc1ccnc(C(F)(F)F)c1,398 nM
2,CCOc1cccc(/C=N/NC(=O)Cc2ccc(Nc3ccnc(C(F)(F)F)c3)cc2)c1O,3980 nM

# Tested on: HCT-116
# Experiment: Cytotoxicity against human HCT116 cells after 48 hrs by sulforhodamine B assay
# Assay type: functional
# Conditions: HCT-116, 48 h
row,SMILES,GI50
1,O=C(N/N=C/c1ccccc1O)c1ccccc1Nc1ccnc(C(F)(F)F)c1,398 nM
2,CCOc1cccc(/C=N/NC(=O)Cc2ccc(Nc3ccnc(C(F)(F)F)c3)cc2)c1O,1260 nM

# Tested on: HCT-15
# Experiment: Cytotoxicity against human HCT15 cells after 48 hrs by sulforhodamine B assay
# Assay type: functional
# Conditions: HCT-15, 48 h
row,SMILES,GI50
1,O=C(N/N=C/c1ccccc1O)c1ccccc1Nc1ccnc(C(F)(F)F)c1,200 nM
2,CCOc1cccc(/C=N/NC(=O)Cc2ccc(Nc3ccnc(C(F)(F)F)c3)cc2)c1O,1000 nM

# Tested on: NCI-H460
# Experiment: Cytotoxicity against human NCI-H460 cells after 48 hrs by sulforhodamine B assay
# Assay type: functional
# Conditions: NCI-H460, 48 h
row,SMILES,GI50
1,O=C(N/N=C/c1ccccc1O)c1ccccc1Nc1ccnc(C(F)(F)F)c1,251 nM
2,CCOc1cccc(/C=N/NC(=O)Cc2ccc(Nc3ccnc(C(F)(F)F)c3)cc2)c1O,1580 nM

# Tested on: NCI-H322M
# Experiment: Cytotoxicity against human NCI-H322M cells after 48 hrs by sulforhodamine B assay
# Assay type: functional
# Conditions: not given
row,SMILES,GI50
1,O=C(N/N=C/c1ccccc1O)c1ccccc1Nc1ccnc(C(F)(F)F)c1,398 nM
2,CCOc1cccc(/C=N/NC(=O)Cc2ccc(Nc3ccnc(C(F)(F)F)c3)cc2)c1O,2510 nM

# Tested on: HOP-92
# Experiment: Cytotoxicity against human HOP92 cells after 48 hrs by sulforhodamine B assay
# Assay type: functional
# Conditions: HOP-92, 48 h
row,SMILES,GI50
1,O=C(N/N=C/c1ccccc1O)c1ccccc1Nc1ccnc(C(F)(F)F)c1,158 nM
2,CCOc1cccc(/C=N/NC(=O)Cc2ccc(Nc3ccnc(C(F)(F)F)c3)cc2)c1O,2000 nM

# Tested on: not listed separately
# Experiment: Cytotoxicity against human EKVX cells after 48 hrs by sulforhodamine B assay
# Assay type: functional
# Conditions: not given
row,SMILES,GI50
1,O=C(N/N=C/c1ccccc1O)c1ccccc1Nc1ccnc(C(F)(F)F)c1,316 nM
2,CCOc1cccc(/C=N/NC(=O)Cc2ccc(Nc3ccnc(C(F)(F)F)c3)cc2)c1O,3980 nM

# Tested on: HOP-62
# Experiment: Cytotoxicity against human HOP62 cells after 48 hrs by sulforhodamine B assay
# Assay type: functional
# Conditions: HOP-62, 48 h
row,SMILES,GI50
1,O=C(N/N=C/c1ccccc1O)c1ccccc1Nc1ccnc(C(F)(F)F)c1,398 nM
2,CCOc1cccc(/C=N/NC(=O)Cc2ccc(Nc3ccnc(C(F)(F)F)c3)cc2)c1O,2510 nM

# Tested on: SR
# Experiment: Cytotoxicity against human SR cells after 48 hrs by sulforhodamine B assay
# Assay type: functional
# Conditions: not given
row,SMILES,GI50
1,O=C(N/N=C/c1ccccc1O)c1ccccc1Nc1ccnc(C(F)(F)F)c1,50.1 nM
2,CCOc1cccc(/C=N/NC(=O)Cc2ccc(Nc3ccnc(C(F)(F)F)c3)cc2)c1O,316 nM

# Tested on: RPMI-8226
# Experiment: Cytotoxicity against human RPMI8226 cells after 48 hrs by sulforhodamine B assay
# Assay type: functional
# Conditions: RPMI-8226, 48 h
row,SMILES,GI50
1,O=C(N/N=C/c1ccccc1O)c1ccccc1Nc1ccnc(C(F)(F)F)c1,200 nM
2,CCOc1cccc(/C=N/NC(=O)Cc2ccc(Nc3ccnc(C(F)(F)F)c3)cc2)c1O,501 nM

# Tested on: MOLT-4
# Experiment: Cytotoxicity against human MOLT4 cells after 48 hrs by sulforhodamine B assay
# Assay type: functional
# Conditions: MOLT-4, 48 h
row,SMILES,GI50
1,O=C(N/N=C/c1ccccc1O)c1ccccc1Nc1ccnc(C(F)(F)F)c1,316 nM
2,CCOc1cccc(/C=N/NC(=O)Cc2ccc(Nc3ccnc(C(F)(F)F)c3)cc2)c1O,501 nM

# Tested on: CCRF-CEM
# Experiment: Cytotoxicity against human CCRF-CEM cells after 48 hrs by sulforhodamine B assay
# Assay type: functional
# Conditions: not given
row,SMILES,GI50
1,O=C(N/N=C/c1ccccc1O)c1ccccc1Nc1ccnc(C(F)(F)F)c1,200 nM
2,CCOc1cccc(/C=N/NC(=O)Cc2ccc(Nc3ccnc(C(F)(F)F)c3)cc2)c1O,316 nM

# Tested on: HL-60(TB)
# Experiment: Cytotoxicity against human HL-60(TB) cells after 48 hrs by sulforhodamine B assay
# Assay type: functional
# Conditions: HL-60, 48 h
row,SMILES,GI50
1,O=C(N/N=C/c1ccccc1O)c1ccccc1Nc1ccnc(C(F)(F)F)c1,398 nM
2,CCOc1cccc(/C=N/NC(=O)Cc2ccc(Nc3ccnc(C(F)(F)F)c3)cc2)c1O,1000 nM
